Test [1] concerns Bacillus subtilis. The test can be described thus: Antibacterial activity against Bacillus subtilis NCIM 2063 assessed as zone of inhibition at 200 ug/disc after 24 hrs by disk diffusion method. Type of test: functional. Particulars: NCIM 2063, 24 h, read-out: DIZ.
Test [2] deals with Fusarium solani. The test can be described thus: Antifungal activity against Fusarium solani NCIM 1330 assessed as zone of inhibition at 100 ug/disc after 48 hrs by disk diffusion method. The test is classed as functional. Particulars: NCIM 1330, 48 h, read-out: DIZ.
Test [3] concerns Curvularia lunata. The test can be described thus: Antifungal activity against Curvularia lunata NCIM 716 assessed as zone of inhibition at 100 ug/disc after 48 hrs by disk diffusion method. Type of test: functional. Particulars: NCIM 716, 48 h, read-out: DIZ.
In test [4] the test system is Aspergillus niger. The test can be described thus: Antifungal activity against Aspergillus niger NCIM 596 assessed as zone of inhibition at 200 ug/disc after 48 hrs by disk diffusion method. The test is classed as functional. To be noted: NCIM 596, 48 h, read-out: DIZ.
The subject of test [5] is Staphylococcus aureus. The test can be described thus: Antibacterial activity against Staphylococcus aureus NCIM 5021 assessed as zone of inhibition at 200 ug/disc after 24 hrs by disk diffusion method. The test is classed as functional. To be noted: NCIM 5021, 24 h, read-out: DIZ.
For test [6], the system named is Fusarium solani. The test can be described thus: Antifungal activity against Fusarium solani NCIM 1330 assessed as zone of inhibition at 200 ug/disc after 48 hrs by disk diffusion method. Type of test: functional. Particulars: NCIM 1330, 48 h, read-out: DIZ.
In test [7] the test system is Proteus vulgaris. The test can be described thus: Antibacterial activity against Proteus vulgaris NCIM 2027 assessed as zone of inhibition at 200 ug/disc after 24 hrs by disk diffusion method. The test is classed as functional. To be noted: NCIM 2027, 24 h, read-out: DIZ.
Test [8] deals with Proteus vulgaris. The test can be described thus: Antibacterial activity against Proteus vulgaris NCIM 2027 assessed as zone of inhibition at 100 ug/disc after 24 hrs by disk diffusion method. Type of test: functional. To be noted: NCIM 2027, 24 h, read-out: DIZ.
The test system of test [9] is Staphylococcus aureus. The test can be described thus: Antibacterial activity against Staphylococcus aureus NCIM 5021 assessed as zone of inhibition at 100 ug/disc after 24 hrs by disk diffusion method. Type of test: functional. Particulars: NCIM 5021, 24 h, read-out: DIZ.
Test [10] relates to Bacillus subtilis. The test can be described thus: Antibacterial activity against Bacillus subtilis NCIM 2063 assessed as zone of inhibition at 100 ug/disc after 24 hrs by disk diffusion method. Type of test: functional. Particulars: NCIM 2063, 24 h, read-out: DIZ.
Test [11] concerns Aspergillus niger. The test can be described thus: Antifungal activity against Aspergillus niger NCIM 596 assessed as zone of inhibition at 100 ug/disc after 48 hrs by disk diffusion method. To be noted: NCIM 596, 48 h, read-out: DIZ. Type of test: functional.
For test [12], the system named is Klebsiella pneumoniae. The test can be described thus: Antibacterial activity against Klebsiella pneumoniae NCIM 2957 assessed as zone of inhibition at 100 ug/disc after 24 hrs by disk diffusion method. The test is classed as functional. Particulars: NCIM 2957, 24 h, read-out: DIZ.
In test [13] the test system is Mycobacterium tuberculosis. The test can be described thus: Antimycobacterial activity against Mycobacterium tuberculosis H37Rv after 7 days by resazurin microtiter plate assay. Type of test: functional. To be noted: 168 h.
Test [14] deals with Klebsiella pneumoniae. The test can be described thus: Antibacterial activity against Klebsiella pneumoniae NCIM 2957 assessed as zone of inhibition at 200 ug/disc after 24 hrs by disk diffusion method. The test is classed as functional. To be noted: NCIM 2957, 24 h, read-out: DIZ.
Test [15] has as its system Curvularia lunata. The test can be described thus: Antifungal activity against Curvularia lunata NCIM 716 assessed as zone of inhibition at 200 ug/disc after 48 hrs by disk diffusion method. Type of test: functional. To be noted: NCIM 716, 48 h, read-out: DIZ.
For test [16], the system named is Mycobacterium tuberculosis. The test can be described thus: Antimycobacterial activity against Mycobacterium tuberculosis H37Rv at 1.5 to 50 ug/ml after 7 days by resazurin microtiter plate assay. Type of test: functional, organism-based.

Each structure is given as a SMILES string. ≈ marks a conversion by molar mass, not a printed value. Calls of active or inactive are those of the source. The calls are words filed in the database; no cut-off is given here.

`Cc1ccc2[nH]c3c(c2c1)CCCc1cnc(O)nc1-3`: the zone of inhibition at 200 µg/disc with Bacillus subtilis [1] worked out at 24 mm; in the test on Aspergillus niger [4], 18 mm; in the test on Staphylococcus aureus [5], 25 mm; in the test with Fusarium solani [6], 19 mm; with Proteus vulgaris [7], 21 mm; in the test on Klebsiella pneumoniae [14], 23 mm. Further, the zone of inhibition at 200 µg/disc in the test on Curvularia lunata [15] came to 21 mm. Also, the zone of inhibition at 100 µg/disc in the test with Fusarium solani [2] amounted to 14 mm; in the test on Curvularia lunata [3] it was 18 mm; with Proteus vulgaris [8], 19 mm; with Staphylococcus aureus [9], 23 mm; in the test on Bacillus subtilis [10], 21 mm; in the test with Aspergillus niger [11], 15 mm. Besides, in the test with Klebsiella pneumoniae [12], the zone of inhibition at 100 µg/disc was determined as 21 mm. Also, in test [13], the MIC worked out at 50 µg/mL (≈ 188 µM).
For the molecule `Cc1ccc2[nH]c3c(c2c1)CCCc1c[nH]nc1-3`, the zone of inhibition at 200 µg/disc in the test with Bacillus subtilis [1] amounted to 33 mm; in the test on Aspergillus niger [4], 34 mm; with Staphylococcus aureus [5], 32 mm; in the test on Fusarium solani [6], 37 mm; in the test on Proteus vulgaris [7] it was 25 mm; with Klebsiella pneumoniae [14], 30 mm. Besides, in the test with Curvularia lunata [15], the zone of inhibition at 200 µg/disc was 36 mm. The zone of inhibition at 100 µg/disc with Fusarium solani [2] was 34 mm; in the test with Curvularia lunata [3] it was 33 mm; in the test with Proteus vulgaris [8] it was 24 mm; in the test with Staphylococcus aureus [9] it was 30 mm; in the test on Bacillus subtilis [10] it was 31 mm; in the test with Aspergillus niger [11], 31 mm. The zone of inhibition at 100 µg/disc in the test with Klebsiella pneumoniae [12] worked out at 28 mm. In [13], this molecule displayed a minimum inhibitory concentration (MIC) of 50 µg/mL (≈ 211 µM).
For `O=C1/C(=C/O)CCCc2c1[nH]c1ccccc21`, the zone of inhibition at 200 µg/disc was 27 mm in the test with Bacillus subtilis [1]; 25 mm in the test with Aspergillus niger [4]; 26 mm with Staphylococcus aureus [5]; 23 mm with Fusarium solani [6]; 25 mm with Proteus vulgaris [7]; 26 mm in the test with Klebsiella pneumoniae [14]. In addition, the zone of inhibition at 200 µg/disc in the test on Curvularia lunata [15] came out at 25 mm. The zone of inhibition at 100 µg/disc was determined as 21 mm with Fusarium solani [2]; 24 mm in the test on Curvularia lunata [3]; 23 mm in the test on Proteus vulgaris [8]; 24 mm in the test with Staphylococcus aureus [9]; 26 mm in the test on Bacillus subtilis [10]; 23 mm in the test with Aspergillus niger [11]. The zone of inhibition at 100 µg/disc with Klebsiella pneumoniae [12] stood at 24 mm. Also, the MIC in test [13] is 50 µg/mL (≈ 220 µM).
Regarding `Cc1ccc2c3c([nH]c2c1)C(=O)/C(=C/O)CCC3`, the MIC result in [16] was “inactive”.
As to `Cc1ccc2c3c([nH]c2c1)-c1nc(S)ncc1CCC3`, the lowest concentration to inhibit growth in [13] (MIC) was 50 µg/mL (≈ 178 µM).
Turning to `Cc1ccc2[nH]c3c(c2c1)CCCc1conc1-3`, the zone of inhibition at 200 µg/disc in the test with Bacillus subtilis [1] came out at 32 mm; in the test with Aspergillus niger [4], 31 mm; in the test with Staphylococcus aureus [5], 31 mm; in the test with Fusarium solani [6] it was 34 mm; in the test on Proteus vulgaris [7], 28 mm; in the test with Klebsiella pneumoniae [14] it was 29 mm. Besides, the zone of inhibition at 200 µg/disc with Curvularia lunata [15] is 32 mm. The zone of inhibition at 100 µg/disc worked out at 31 mm in the test on Fusarium solani [2]; 29 mm in the test with Curvularia lunata [3]; 26 mm with Proteus vulgaris [8]; 29 mm in the test on Staphylococcus aureus [9]; 30 mm in the test with Bacillus subtilis [10]; 28 mm with Aspergillus niger [11]. For the same molecule, the zone of inhibition at 100 µg/disc with Klebsiella pneumoniae [12] was 26 mm. Also, 50 µg/mL (≈ 210 µM) was the least that counted as inhibitory in test [13] (MIC).
In turn, `Cc1cccc2c3c([nH]c12)C(=O)/C(=C/O)CCC3` registered an MIC in test [13] of 50 µg/mL (≈ 207 µM).
Turning to `Cc1cccc2c3c([nH]c12)-c1nc(O)ncc1CCC3`, the MIC result in [16] is “inactive”.
Regarding `Cc1ccc2c3c([nH]c2c1)-c1nocc1CCC3`, inhibition of growth in test [13] (MIC) required 25 µg/mL (≈ 105 µM).
The same measure, in the same setting: the same measure for `Cc1ccc2c3c([nH]c2c1)-c1c(cnn1-c1ccccc1)CCC3`: 25 µg/mL (≈ 79.8 µM).
For `Cc1ccc2[nH]c3c(c2c1)CCC/C(=C\O)C3=O`, the zone of inhibition at 200 µg/disc in the test with Bacillus subtilis [1] came out at 30 mm; in the test on Aspergillus niger [4], 27 mm; with Staphylococcus aureus [5], 29 mm; in the test with Fusarium solani [6], 26 mm; in the test with Proteus vulgaris [7], 25 mm; in the test with Klebsiella pneumoniae [14], 28 mm. Further, the zone of inhibition at 200 µg/disc in the test on Curvularia lunata [15] amounted to 28 mm. Also, the zone of inhibition at 100 µg/disc in the test on Fusarium solani [2] came to 23 mm; with Curvularia lunata [3], 26 mm; with Proteus vulgaris [8] it was 22 mm; in the test on Staphylococcus aureus [9], 26 mm; in the test on Bacillus subtilis [10], 28 mm; in the test on Aspergillus niger [11] it was 23 mm. Further, in the test with Klebsiella pneumoniae [12], the zone of inhibition at 100 µg/disc worked out at 25 mm. Moreover, in test [13], it took 25 µg/mL (≈ 104 µM) to inhibit growth (MIC).
In turn, `Cc1cccc2c3c([nH]c12)-c1n[nH]cc1CCC3` returned an MIC in test [13] of 25 µg/mL (≈ 105 µM).
As to `Cc1ccc2[nH]c3c(c2c1)CCCc1cnc(S)nc1-3`, the zone of inhibition at 200 µg/disc in the test on Bacillus subtilis [1] amounted to 16 mm; in the test with Aspergillus niger [4], 16 mm; with Staphylococcus aureus [5], 15 mm; in the test on Fusarium solani [6] it was 16 mm; in the test with Proteus vulgaris [7], 12 mm; with Klebsiella pneumoniae [14], 12 mm. Moreover, the zone of inhibition at 200 µg/disc with Curvularia lunata [15] was found to be 20 mm. The zone of inhibition at 100 µg/disc in the test on Fusarium solani [2] came to 13 mm; in the test with Curvularia lunata [3] it was 16 mm; in the test with Proteus vulgaris [8], 10 mm; with Staphylococcus aureus [9], 13 mm; in the test with Bacillus subtilis [10] it was 14 mm; in the test with Aspergillus niger [11] it was 14 mm. For the same molecule, the zone of inhibition at 100 µg/disc with Klebsiella pneumoniae [12] came out at 11 mm. In addition, it took 50 µg/mL (≈ 178 µM) to inhibit growth in [13] (MIC).
In test [13], `Cc1cccc2c3c([nH]c12)-c1nc(S)ncc1CCC3` gave an MIC of 50 µg/mL (≈ 178 µM).
Consider `O=C1/C(=C/O)CCCc2c1[nH]c1ccc(Cl)cc21`, for which the zone of inhibition at 200 µg/disc in the test on Bacillus subtilis [1] was found to be 32 mm; in the test on Aspergillus niger [4], 31 mm; in the test on Staphylococcus aureus [5], 33 mm; with Fusarium solani [6], 30 mm; in the test with Proteus vulgaris [7], 28 mm; with Klebsiella pneumoniae [14], 30 mm. Moreover, in the test on Curvularia lunata [15], the zone of inhibition at 200 µg/disc is 30 mm. Moreover, the zone of inhibition at 100 µg/disc amounted to 29 mm in the test on Fusarium solani [2]; 27 mm in the test on Curvularia lunata [3]; 25 mm in the test on Proteus vulgaris [8]; 31 mm in the test with Staphylococcus aureus [9]; 28 mm with Bacillus subtilis [10]; 25 mm in the test on Aspergillus niger [11]. Further, the zone of inhibition at 100 µg/disc with Klebsiella pneumoniae [12] amounted to 28 mm. The same molecule yielded an MIC in test [13] of 25 µg/mL (≈ 95.5 µM).
`Cc1cccc2c3c([nH]c12)-c1nocc1CCC3` had an MIC in [13] of 25 µg/mL (≈ 105 µM).
For the molecule `Cc1cccc2c3c([nH]c12)-c1c(cnn1-c1ccccc1)CCC3`, the minimal inhibitory concentration (MIC) in [13] is 25 µg/mL (≈ 79.8 µM).
Consider `Cc1ccc2c3c([nH]c2c1)-c1nc(O)ncc1CCC3`, for which, in [16], the MIC result is “inactive”.
In test [13], `Cc1ccc2c3c([nH]c2c1)-c1n[nH]cc1CCC3` registered an MIC of 25 µg/mL (≈ 105 µM).

These data come from ChEMBL document CHEMBL1926563, “Synthesis, antimicrobial, antimycobacterial and structure-activity relationship of substituted pyrazolo-, isoxazolo-, pyrimido- and mercaptopyrimidocyclohepta[b]indoles” (2012).
